Target: T1, human mGluR2 receptor (Homo sapiens, UniProt Q14416)
T1 construct: expressed in transfected cells; host or cells: CHO cells
Experiment: [35S]GTPγS binding assay, positive allosteric modulation (GTPγS-PAM) in presence of EC20 glutamate
Type: biochemical
Conditions: in presence of glutamate at EC20; average pEC50 if more experiments; ‡ means tested once
Protocol: [^35S]GTPγS Binding Assay
The [^35S]GTPγS binding assay is a functional membrane-based assay used to study G-protein coupled receptor (GPCR) function whereby incorporation of a non-hydrolysable form of GTP, [^35S]GTPγS (guanosine 5′-triphosphate, labelled with […] ^35S), is measured. The G-protein α subunit catalyzes the exchange of guanosine 5′-diphosphate (GDP) by guanosine triphosphate (GTP) and on activation of the GPCR by an agonist, [^35S]GTPγS, becomes incorporated and cannot be cleaved to continue the exchange cycle (Harper (1998) Current Protocols in Pharmacology 2.6.1-10, John Wiley & Sons, Inc.). […] Here we describe the use of the [^35S]GTPγS binding assay using membranes from cells transfected with the human mGluR2 receptor and adapted from Schaffhauser et al. ((2003) Molecular Pharmacology 4:798-810) for the detection of the positive allosteric modulation (PAM) properties of the compounds of this invention.
CHO-cells were cultured to pre-confluence and stimulated with 5 mM butyrate for 24 h, prior to washing in PBS, and then collected by scraping in homogenisation buffer (50 mM Tris-HCl buffer, pH 7.4, 4° C.). Cell lysates were homogenized briefly using an ultra-turrax homogenizer. The homogenate was centrifuged at 16,000 RPM (Sorvall RC-5C plus rotor SS-34) for 10 minutes and the supernatant discarded. The pellet was resuspended in 5 mM Tris-HCl, pH 7.4 and centrifuged again (18,000 RPM, 20 min, 4° C.). The final pellet was resuspended in 50 mM Tris-HCl, pH 7.4 and stored at −80° C. in appropriate aliquots before use. Protein concentration was determined by the Bradford method (Bio-Rad, USA) with bovine serum albumin as standard.
Measurement of mGluR2 positive allosteric modulatory activity of test compounds was performed as follows. Test compounds and glutamate were diluted in assay buffer containing 10 mM HEPES acid, 10 mM HEPES salt, pH 7.4, 100 mM NaCl, 3 mM MgCl2 and 10 μM GDP. Human mGlu2 receptor-containing membranes were thawed on ice and diluted in assay buffer supplemented with 14 μg/ml saponin. Membranes were pre-incubated with compound alone or together with a predefined (˜EC20) concentration of glutamate (PAM assay) for 30 min at 30° C. After addition of [^35S]GTPγS (f.c. 0.1 nM) microplates were shaken briefly and further incubated to allow [^35S]GTPγS incorporation on activation (30 minutes, 30° C.). Final assay mixtures contained 7 μg of membrane protein in 10 mM HEPES acid, 10 mM HEPES salt, pH 7.4, 100 mM NaCl, 3 mM MgCl2, 10 µM GDP and 10 μg/ml saponin. Total reaction volume was 200 μl. Reactions were terminated by rapid filtration through Unifilter-96 GF/B filter plates (Packard, Meriden, Conn.) using a 96-well Packard filtermate harvester. Filters were washed 6 times with ice-cold 10 mM NaH2PO4/10 mM Na2HPO4, pH 7.4. Filters were then air-dried, and 40 μl of liquid scintillation cocktail (Microscint-O) was added to each well. Membrane-bound radioactivity was counted in a Microplate Scintillation and Luminescence Counter from Packard.
The concentration-response curves of representative compounds of the present invention-obtained in the presence of EC20 of mGluR2 agonist glutamate to determine positive allosteric modulation (PAM)—were generated using the Lexis software interface (developed at J&J).

T1 sequence (Q14416 19-872): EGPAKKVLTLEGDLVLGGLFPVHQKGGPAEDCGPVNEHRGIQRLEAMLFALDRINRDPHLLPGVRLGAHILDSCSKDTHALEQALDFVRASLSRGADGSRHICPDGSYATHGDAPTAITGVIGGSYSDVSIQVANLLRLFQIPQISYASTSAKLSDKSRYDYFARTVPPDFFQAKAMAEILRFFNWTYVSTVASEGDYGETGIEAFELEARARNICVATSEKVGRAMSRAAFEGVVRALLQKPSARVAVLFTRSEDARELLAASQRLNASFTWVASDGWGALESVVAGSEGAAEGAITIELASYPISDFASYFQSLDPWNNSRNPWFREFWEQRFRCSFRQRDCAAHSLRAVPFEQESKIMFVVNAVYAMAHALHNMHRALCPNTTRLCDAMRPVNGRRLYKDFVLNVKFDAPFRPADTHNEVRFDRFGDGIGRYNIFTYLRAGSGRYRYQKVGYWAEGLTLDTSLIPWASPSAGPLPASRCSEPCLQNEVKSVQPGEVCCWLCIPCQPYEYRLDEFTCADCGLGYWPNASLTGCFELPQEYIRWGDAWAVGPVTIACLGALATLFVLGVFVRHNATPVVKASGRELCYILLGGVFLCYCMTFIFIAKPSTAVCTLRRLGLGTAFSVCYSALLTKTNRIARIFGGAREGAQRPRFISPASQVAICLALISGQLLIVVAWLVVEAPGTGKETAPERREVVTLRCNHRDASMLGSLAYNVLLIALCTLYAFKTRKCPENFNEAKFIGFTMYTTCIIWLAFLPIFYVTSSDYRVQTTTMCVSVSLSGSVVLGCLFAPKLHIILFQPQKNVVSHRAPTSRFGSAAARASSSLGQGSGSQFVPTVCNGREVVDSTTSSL

Row | Structure (SMILES) | GTPγS - hR2 PAM pEC50
1 | Clc1c(N2CCC(c3ccccc3)CC2)ccn2c(CCC3CC3)nnc12 [compound 146] | 7.02
2 | O=C1OC2(CCN(c3ccn4c(CC5CC5)nnc4c3Cl)CC2)c2ccccc21 [compound 149] | 6.5‡
3 | CC(C)OCc1nnc2c(C(F)(F)F)c(N3CCC(Oc4ccccn4)CC3)ccn12 [compound 150] | 6.97‡
4 | FC(F)(F)c1c(N2CC[C@H](Oc3ccccc3)C2)ccn2c(CC3CC3)nnc12 [compound 152] | 6.78
5 | Cc1c(N2CCC3(CC2)OC(C)(C)c2ccccc23)ccn2c(CC3CC3)nnc12 [compound 154] | 7.13
6 | CC(C)OCc1nnc2c(C(F)(F)F)c(N3CCN(c4ccccc4)CC3)ccn12 [compound 155] | 6.83‡
7 | Clc1c(N2CCN(c3coc4ccccc34)CC2)ccn2c(CC3CC3)nnc12 [compound 157] | 6.18
8 | FC(F)(F)C1(OCc2cccnc2)CCN(c2ccn3c(CC4CC4)nnc3c2Cl)CC1 [compound 158] | 6.14
9 | Clc1c(N2CCC3(CC2)COc2cccnc23)ccn2c(CC3CC3)nnc12 [compound 161] | 5.68‡
10 | Cc1cccnc1OC1CCN(c2ccn3c(COC(C)C)nnc3c2C(F)(F)F)CC1 [compound 162] | 6.93
11 | FC(F)(F)C(c1ccccc1)N1CCN(c2ccn3c(CC4CC4)nnc3c2Cl)CC1 (stereo not drawn) [compound 163] | 6.97‡
12 | Clc1c(N2CCN(C3COc4ccccc4C3)CC2)ccn2c(CC3CC3)nnc12 (stereo not drawn) [compound 164] | 6.46
13 | Cc1cc(OC2CCN(c3ccn4c(CC5CC5)nnc4c3C(F)(F)F)CC2)ccn1 [compound 165] | 6.41
14 | Fc1ccc(N2C[C@@H]3CN(c4ccn5c(CC6CC6)nnc5c4C(F)(F)F)C[C@@H]3C2)c(F)c1 [compound 166] | 7.22
15 | FC(F)(F)c1c(N2CCC(Oc3cccnc3)CC2)ccn2c(CC3CC3)nnc12 [compound 167] | 6.47‡
16 | CC1CN(c2ccn3c(CC4CC4)nnc3c2Cl)CCC1c1ccccc1 (stereo not drawn) [compound 168] | 7.22
17 | CC1CN(c2ccn3c(CC4CC4)nnc3c2C(F)(F)F)CCC1c1ccccc1 (stereo not drawn) [compound 169] | 7.77‡
18 | Clc1c(N2CCC(Oc3cccnc3)CC2)ccn2c(CC3CC3)nnc12 [compound 170] | 5.84‡

Row | Structure (SMILES) | GTPγS - hR2 PAM pEC50
19 | Clc1c(N2CCC(c3ccccc3)C2)ccn2c(CC3CC3)nnc12 (stereo not drawn) [compound 173] | 6.32‡
20 | FC(F)(F)c1c(N2CCC(c3ccccc3)C2)ccn2c(CC3CC3)nnc12 (stereo not drawn) [compound 174] | 5.91‡
21 | FC(F)(F)c1c(N2CCC(Nc3ccccc3)CC2)ccn2c(CC3CC3)nnc12 [compound 175] | 6.33
22 | Fc1ccccc1NC1CCN(c2ccn3c(CC4CC4)nnc3c2Cl)CC1 [compound 176] | 6.3
23 | CC(C)(C)Cc1nnc2c(C(F)(F)F)c(N3CCC(c4ccccc4)CC3)ccn12 [compound 177] | 7.67
24 | Fc1cc(F)cc(CN2CCN(c3ccn4c(CC5CC5)nnc4c3Cl)CC2)c1 [compound 179] | 5.79‡
25 | Fc1ccccc1NC1CCN(c2ccn3c(CC4CC4)nnc3c2C(F)(F)F)CC1 [compound 183] | 7.08
26 | FC(F)(F)c1c(N2CCC(c3ccccc3)CC2)ccn2c(CC3CCC3)nnc12 [compound 185] | 8.26
27 | Fc1ccc(N2C[C@@H]3CN(c4ccn5c(CC6CC6)nnc5c4Cl)C[C@@H]3C2)c(F)c1 [compound 186] | 7.27
28 | Cc1c(N2CCC(c3ccccc3)(C(F)(F)F)CC2)ccn2c(CC3CC3)nnc12 [compound 187] | 6.19
29 | Fc1ccc(N2CCCC3(C2)CN(c2ccn4c(CC5CC5)nnc4c2C(F)(F)F)C3)c(F)c1 [compound 188] | 8‡
30 | Fc1ccccc1NC1CN(c2ccn3c(CC4CC4)nnc3c2C(F)(F)F)C1 [compound 189] | 6.4
31 | Fc1ccccc1NC1CN(c2ccn3c(CC4CC4)nnc3c2Cl)C1 [compound 190] | 6.5
32 | C[C@H]1CN(c2ccn3c(CC(F)(F)F)nnc3c2Cl)CCN1c1cc(F)cc(F)c1 [compound 191] | 6.76
33 | C[C@@H]1CN(c2ccn3c(CC(F)(F)F)nnc3c2Cl)CCN1c1cc(F)cc(F)c1 [compound 192] | 6.63
34 | CC1(c2ccccc2F)CCN(c2ccn3c(CC4CC4)nnc3c2C(F)(F)F)CC1 [compound 193] | 8.26
35 | CC1(c2ccc(F)cc2)CCN(c2ccn3c(CC4CC4)nnc3c2C(F)(F)F)CC1 [compound 194] | 7.69
36 | Fc1ccc(C2CCN(c3ccn4c(CC5CC5)nnc4c3C(F)(F)F)CC2)c(F)c1 [compound 195] | 7.98

Continued, values first:

Row | GTPγS - hR2 PAM pEC50 | Structure (SMILES)
37 | 7.06 | Fc1ccc(N2CCN(c3ccn4c(CC5CC5)nnc4c3C(F)(F)F)CC2)c(F)c1 [compound 196]
38 | 7.82‡ | CC1(c2cccc(F)c2)CCN(c2ccn3c(CC4CC4)nnc3c2C(F)(F)F)CC1 [compound 197]
39 | 6.29‡ | FC(F)(F)c1c(N2CCC(c3cccnc3)CC2)ccn2c(CC3CC3)nnc12 [compound 198]
40 | 6.8 | Cc1cc(C2CCN(c3ccn4c(CC5CC5)nnc4c3C(F)(F)F)CC2)ccn1 [compound 199]
41 | 6.9 | Fc1ccc(N2CC3(CCN(c4ccn5c(CC6CC6)nnc5c4C(F)(F)F)CC3)C2)c(F)c1 [compound 201]
42 | 7.86‡ | Fc1ccc(N2CCC3(CCN(c4ccn5c(CC6CC6)nnc5c4C(F)(F)F)CC3)C2)c(F)c1 [compound 202]
43 | 6.73 | Fc1ccc(NC2CCN(c3ccn4c(CC5CC5)nnc4c3C(F)(F)F)CC2)c(F)c1 [compound 203]
44 | 6.61‡ | N#Cc1c(N2CCC(c3ccccc3)CC2)ccn2c(-c3ccccc3)nnc12 [compound 205]
45 | 6.5 | Fc1ccc(N2CC3(CCN(c4ccn5c(CC6CC6)nnc5c4Cl)CC3)C2)c(F)c1 [compound 210]
46 | 6.03‡ | O=C1N(c2ccc(F)cc2F)CC12CCN(c1ccn3c(CC4CC4)nnc3c1Cl)CC2 [compound 213]
47 | 5.6‡ | Fc1ccc(CN2CCN(c3ccn4c(CC5CC5)nnc4c3Cl)CC2)c(F)c1 [compound 215]
48 | 6.68 | FC(F)(F)c1c(N2CCN(CCc3ccccc3)CC2)ccn2c(CC3CC3)nnc12 [compound 216]
49 | 6.05‡ | FC(F)(F)c1cccc(CN2CCN(c3ccn4c(CC5CC5)nnc4c3Cl)CC2)c1 [compound 218]
50 | 6.03‡ | FC(F)(F)C1CCC(N2CCN(c3ccn4c(CC5CC5)nnc4c3Cl)CC2)CC1 (stereo not drawn) [compound 223]
51 | 6.31‡ | Fc1ccc(CN2CCN(c3ccn4c(CC5CC5)nnc4c3C(F)(F)F)CC2)c(F)c1 [compound 227]
52 | 5.61‡ | FC(F)(F)c1c(N2CCC(NCc3ccccc3)CC2)ccn2c(CC3CC3)nnc12 [compound 230]

Same assay, conditions: in presence of glutamate at EC20; average pEC50 if more experiments; ‡ means tested once; read-out: GTPγS - hR2 PAM pEC50 (converted)

Row | EC50 [µM] | Structure (SMILES)
53 | 0.245 | FC(F)(F)c1c(N2CCC3(CC2)OC(F)(F)c2ccccc23)ccn2c(CC3CC3)nnc12 [compound 147, 1′-[3-cyclopropylmethyl-8-(trifluoromethyl)[1,2,4]triazolo[4,3-a]pyridin-7-yl]-3,3-difluoro-3H-spiro[benzo[c]furan-1,4′-piperidine]]
54 | 0.00355 | CC1(C)OC2(CCN(c3ccn4c(CC5CC5)nnc4c3C(F)(F)F)CC2)c2ccc(F)cc21 [compound 200, 1′-[3-(Cyclopropylmethyl)-8-(trifluoromethyl)-1,2,4-triazolo[4,3-a]pyridin-7-yl]-5-fluoro-3,3-dimethyl-spiro[isobenzofuran-1(3H),4′-piperidine]]
